Columns and labels:
Assay type in all cases: cell-based
[1] = system: SW480 colon cancer cells; test: Cell viability assay (CellTiter-Blue) in SW480 colon cancer cells; settings: Homo sapiens; for EC50: 96 h, four days, CellTiter-Blue
Method in brief: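 Four-day viability readout in SW480 cells: compound at 0.0045–10 μM (1:3 series), DMSO controls in eight replicates, CellTiter-Blue fluorescence after ~3 h. Values are regression-derived EC50s, or percent inhibition at 10 μM when EC50 exceeds 10 μM.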

[2] = system: primary human mesenchymal stem cells (hMSCs); test: Induction of chondrogenesis in primary human mesenchymal stem cells (nodule count); settings: 144 h, 6 days; for Emax: TGF-β3 10 ng/mL as positive control, read-out: Max. Activity as % TGF-β3 activity; for EC50: concentration required to induce 50% levels of chondrogenesis vs TGF-β3, read-out: Conc (nM) of 50% TGF-β3 activity
Description: Representative compounds were screened using primary human mesenchymal stem cells (hMSCs) to determine their ability to induce chondrogenesis (process by which cartilage is developed).
Human Mesenchymal Stem Cell Culture: Primary human mesenchymal stem cells (hMSCs) were purchased from Lonza (Walkersville, Md.) and expanded in Mesenchymal Stem Cell Growth Media (Lonza). Cells between passage 3 and 6 were used for the experiments.
Compound Screening: Each compound was dissolved in DMSO as a 10 mM stock and used to prepare compound source plates. Serial dilution (1:3, 6-point dose-response curves from 2700 nM to 10 nM) and compound transfer was performed using the ECHO 550 (Labcyte, Sunnyvale, Calif.) into 96-well clear bottom assay plates (Greiner Bio-One) with appropriate DMSO backfill for a final DMSO concentration of 0.03%. hMSCs were plated at 20,000 cells/well in 250 μL/well Incomplete Chondrogenic Induction Medium (Lonza; DMEM, dexamethasone, ascorbate, insulin-transferrin-selenium [ITS supplement], gentamycin-amphotericin [GA-1000], sodium pyruvate, proline and L-glutamine). TGF-β3 (10 ng/mL) was used as a positive control for differentiation while negative control wells were treated with 75 nL DMSO for normalization and calculating EC50 values. Cells were incubated at 37° C. and 5% CO2 for 6 days. To image chondrogenic nodules, the cells were fixed using 4% formaldehyde (Electron Microscopy Sciences), and stained with 2 μg/mL Rhodamine B (Sigma-Aldrich) and 20 μM Nile Red (Sigma-Aldrich) [Johnson K., et. al, A Stem Cell-Based Approach to Cartilage Repair, Science, (2012), 336(6082), 717-721]. The nodules imaged (4 images per well at 4× magnification) by excitation at 531 nm and emission at 625 nm and quantified using the CellInsight CX5 (Thermo Scientific). Number of nodules in each well was normalized to the average of 3 DMSO treated wells on the same plate using Excel (Microsoft Inc.). The normalized averages (fold change over DMSO) of 3 replicate wells for each compound concentration were calculated. Due to solubility limitations of some of the compounds, curve fitting was incomplete leading to inaccurate EC50 determinations.
Using TGF-β3 as a positive control, the concentration of representative compounds required to induce 50% levels of chondrogenesis is reported. In addition, the maximum activity of each compound and the respective dose that each compound reached maximum chondrogenesis activity is reported.

[3] = system: IL-6; test: IL-6 inhibition in LPS-stimulated THP-1 cells (HTRF); settings: Homo sapiens; for EC50: LPS 500 ng/mL, 22 hours, IL6 HTRF

Row | EC50 [1] [nM] | EC50 [3] [nM] | EC50 [2] [nM] | SMILES | Emax [2] [%] | inhibition at 10 µM ([1]; given for EC50 >10 μM, 10 μM, read-out: percent inhibition at 10 μM) [%] | inhibition at 10 µM ([3]; given for EC50 >10 μM, LPS, IL6, 10 μM, read-out: percent inhibition at 10 μM) [%]
1 | 1850 | 3980 | 10 | CN1CCN(c2nccc3[nH]c(-c4n[nH]c5ccc(-c6cncc(CN7CCCCC7)c6)nc45)cc23)CC1 [Compound 239, 3-(4-(4-methylpiperazin-1-yl)-1H-pyrrolo[3,2-c]pyridin-2-yl)-5-(5-(piperidin-1-ylmethyl)pyridin-3-yl)-1H-pyrazolo[4,3-b]pyridine] | 71 | – | –
2 | 1130 | 287 | 100 | CN1CCN(c2nccc3[nH]c(-c4n[nH]c5ccc(-c6cncnc6)nc45)cc23)CC1 [Compound 251, 3-(4-(4-Methylpiperazin-1l-yl)-1H-pyrrolo[3,2-c]pyridin-2-yl)-5-(pyrimidin-5-yl)-1H-pyrazolo[4,3-b]pyridine] | 56 | – | –
3 | 161 | 73 | 900 | c1cncc(-c2ccc3[nH]nc(-c4cc5cnccc5[nH]4)c3n2)c1 [Compound 256, 5-(Pyridin-3-yl)-3-(1H-pyrrolo[3,2-c]pyridin-2-yl)-1H-pyrazolo[4,3-b]pyridine] | 119 | – | –
4 | 1660 | 462 | 2700 | CCNCc1cncc(-c2ccc3[nH]nc(-c4cc5cnccc5[nH]4)c3n2)c1 [Compound 258, N-((5-(3-(1H-Pyrrolo[3,2-c]pyridin-2-yl)-1H-pyrazolo[4,3-b]pyridin-5-yl)pyridin-3-yl)methyl)ethanamine] | 99 | – | –
5 | 907 | 866 | 30 | CN(C)Cc1cncc(-c2ccc3[nH]nc(-c4cc5cnccc5[nH]4)c3n2)c1 [Compound 265, 1-(5-(3-(1H-Pyrrolo[3,2-c]pyridin-2-yl)-1H-pyrazolo[4,3-b]pyridin-5-yl)pyridin-3-yl)-N,N-dimethylmethanamine] | 119 | – | –
6 | 88 | 92 | 300 | FC1(F)CCN(Cc2cncc(-c3ccc4[nH]nc(-c5cc6cnccc6[nH]5)c4n3)c2)C1 [Compound 278, 5-(5-((3,3-Difluoropyrrolidin-1-yl)methyl)pyridin-3-yl)-3-(1H-pyrrolo[3,2-c]pyridin-2-yl)-1H-pyrazolo[4,3-b]pyridine] | 134 | – | –
7 | 1470 | 1110 | 2700 | c1cc2[nH]c(-c3n[nH]c4ccc(-c5cncnc5)nc34)cc2cn1 [Compound 279, 5-(Pyrimidin-5-yl)-3-(1H-pyrrolo[3,2-c]pyridin-2-yl)-1H-pyrazolo[4,3-b]pyridine] | 53 | – | –
8 | 921 | 108 | – | CC(C)CC(=O)Nc1cncc(-c2ccc3[nH]nc(-c4cc5c(-c6cc(F)cc(CNS(C)(=O)=O)c6)nccc5[nH]4)c3n2)c1 [Compound 478, N-(5-(3-(4-(3-Fluoro-5-(methylsulfonamidomethyl)phenyl)-1H-pyrrolo[3,2-c]pyridin-2-yl)-1H-pyrazolo[4,3-b]pyridin-5-yl)pyridin-3-yl)-3-methylbutanamide] | 33 | – | –
9 | 1040 | 45 | 10 | Cc1ccncc1-c1ccc2[nH]nc(-c3cc4c(-c5cc(F)cc(CNS(C)(=O)=O)c5)nccc4[nH]3)c2n1 [Compound 481, N-(3-Fluoro-5-(2-(5-(4-methylpyridin-3-yl)-1H-pyrazolo[4,3-b]pyridin-3-yl)-1H-pyrrolo[3,2-c]pyridin-4-yl)benzyl)methanesulfonamide] | 98 | – | –
10 | > 10000 | > 10000 | 10 | CS(=O)(=O)NCc1cc(F)cc(-c2nccc3[nH]c(-c4n[nH]c5ccc(-c6cncc(NC(=O)Cc7ccccc7)c6)nc45)cc23)c1 [Compound 486, N-(5-(3-(4-(3-Fluoro-5-(methylsulfonamidomethyl)phenyl)-1H-pyrrolo[3,2-c]pyridin-2-yl)-1H-pyrazolo[4,3-b]pyridin-5-yl)pyridin-3-yl)-2-phenylacetamide] | 110 | 8.8 | 28.5
11 | 1980 | 162 | 900 | CS(=O)(=O)NCc1cc(F)cc(-c2nccc3[nH]c(-c4n[nH]c5ccc(-c6cncc(NC(=O)C7CCCC7)c6)nc45)cc23)c1 [Compound 498, N-(5-(3-(4-(3-Fluoro-5-(methylsulfonamidomethyl)phenyl)-1H-pyrrolo[3,2-c]pyridin-2-yl)-1H-pyrazolo[4,3-b]pyridin-5-yl)pyridin-3-yl)cyclopentanecarboxamide] | 50 | – | –

Continued, compound first:

Row | SMILES | EC50 [1] [nM] | EC50 [3] [nM] | EC50 [2] [nM] | Emax [2] [%] | inhibition at 10 µM ([1]; given for EC50 >10 μM, 10 μM, read-out: percent inhibition at 10 μM) [%] | inhibition at 10 µM ([3]; given for EC50 >10 μM, LPS, IL6, 10 μM, read-out: percent inhibition at 10 μM) [%]
12 | CN(C)Cc1cncc(-c2ccc3[nH]nc(-c4cc5c(-c6ccccc6F)nccc5[nH]4)c3n2)c1 [Compound 69, 1-(5-(3-(4-(2-Fluorophenyl)-1H-pyrrolo[3,2-c]pyridin-2-yl)-1H-pyrazolo [4,3-b]pyridin-5-yl)pyridin-3-yl)-N,N-dimethylmethanamine] | 596 | 1150 | – | 7 | – | –
13 | O=C(Nc1cncc(-c2ccc3[nH]nc(-c4cc5c(-c6ccccc6F)nccc5[nH]4)c3n2)c1)C1CC1 [Compound 76, N-(5-(3-(4-(2-Fluorophenyl)-1H-pyrrolo[3,2-c]pyridin-2-yl)-1H-pyrazolo [4,3-b]pyridin-5-yl)pyridin-3-yl)cyclopropanecarboxamide] | 596 | 95 | – | 25 | – | –
14 | Fc1ccccc1-c1nccc2[nH]c(-c3n[nH]c4ccc(-c5cncc(CNCc6ccccc6)c5)nc34)cc12 [Compound 80, N-Benzyl-1-(5-(3-(4-(2-fluorophenyl)-1H-pyrrolo[3,2-c]pyridin-2-yl)-1H-pyrazolo[4,3-b]pyridin-5-yl)pyridin-3-yl)methanamine] | 2140 | 9100 | 10 | 110 | – | –
15 | c1cncc(-c2ccc3[nH]nc(-c4cc5c(N6CCCCC6)nccc5[nH]4)c3n2)c1 [Compound 172, 3-(4-(Piperidin-1-yl)-1H-pyrrolo[3,2-c]pyridin-2-yl)-5-(pyridin-3-yl)-1H-pyrazolo[4,3-b]pyridine] | 543 | 84 | – | 29 | – | –
16 | CN(C)Cc1cncc(-c2ccc3[nH]nc(-c4cc5c(N6CCCCC6)nccc5[nH]4)c3n2)c1 [Compound 181, N,N-Dimethyl-1-(5-(3-(4-(piperidin-1l-yl)-1H-pyrrolo[3,2-c]pyridin-2-yl)-1H-pyrazolo[4,3-b]pyridin-5-yl)pyridin-3-yl)methanamine] | 2700 | 2210 | – | 23 | – | –
17 | CCCCC(=O)Nc1cncc(-c2ccc3[nH]nc(-c4cc5c(N6CCCCC6)nccc5[nH]4)c3n2)c1 [Compound 187, N-(5-(3-(4-(Piperidin-1-yl)-1H-pyrrolo[3,2-c]pyridin-2-yl)-1H-pyrazolo[4,3-b]pyridin-5-yl)pyridin-3-yl)pentanamide] | 4460 | 102 | 30 | 54 | – | –
18 | FC1(F)CCN(Cc2cncc(-c3ccc4[nH]nc(-c5cc6c(N7CCCCC7)nccc6[nH]5)c4n3)c2)C1 [Compound 194, 5-(5-((3,3-Difluoropyrrolidin-1-yl)methyl)pyridin-3-yl)-3-(4-(piperidin-1-yl)-1H-pyrrolo[3,2-c]pyridin-2-yl)-1H-pyrazolo[4,3-b]pyridine] | 1900 | 186 | 30 | 123 | – | –
19 | c1ccc(-c2ccc3[nH]nc(-c4cc5c(N6CCCCC6)nccc5[nH]4)c3n2)nc1 [Compound 196, 3-(4-(Piperidin-1-yl)-1H-pyrrolo[3,2-c]pyridin-2-yl)-5-(pyridin-2-yl)-1H-pyrazolo[4,3-b]pyridine] | 2830 | 1800 | 100 | 102 | – | –
20 | Cc1ccncc1-c1ccc2[nH]nc(-c3cc4c(N5CCN(C)CC5)nccc4[nH]3)c2n1 [Compound 229, 3-(4-(4-Methylpiperazin-1l-yl)-1H-pyrrolo[3,2-c]pyridin-2-yl)-5-(4-methylpyridin-3-yl)-1H-pyrazolo[4,3-b]pyridine] | 824 | 108 | 2700 | 87 | – | –
